US20040248275A1, “Engineered bacterial aggregates” (priority 2003, published 2004)

B1: Lentil lectin (protein, UniProt P02870 31-210; P02870 218-269, looked up)
Lectin beta chain: TETTSFSITKFSPDQKNLIFQGDGYTTKGKLTLTKAVKSTVGRALYSTPIHIWDRDTGNVANFVTSFTFVIDAPSSYNVADEFTFFIAPVDTKPQTGGGYLGVFNSKEYDKTSQTVAVEFDTFYNAAWDPSNKERHIGIDVNSIKSVNTKSWNLQNGERANVVIAFNAATNVLTVTLTYP
Lectin alpha chain: VTSYTLNEVVPLKDVVPEWVRIGFSATTGAEFAAHEVHSWSFHSELGGTSSS

Assays:
Assay in all cases: Lectin aggregation of bacterial cells (microtitre wells, semi-quantitative score)
Type in all cases: cell-based
Set-up in all cases: key: Where the addition of lectins did not cause the aggregation of cells, a score of “0” was assigned; Lectins that caused cellular-aggregation to give small flocs in a turbid suspension were given a score of “+”; A score of “++” was given to lectin-cell aggregate mixes that resulted in large aggregates seen by eye in a turbid suspension; Lectins that caused cellular aggregation to give easily visible aggregates in a clear solution were given a score of “+++”
Conditions in all cases: cells O.D. 0.5 at 650 nm
C. freundii = test system: C. freundii
Description: (§1) Assay approach: Six lectins were chosen to discover their suitability for the aggregation of different species of bacteria. These were Concanavalin A, Lentil lectin, Pseudomonas aeruginosa lectin, peanut lectin, Limulus polyphemus lectin and wheat germ lectin.
(§2) The ability of the lectins to aggregate bacterial cells was studied by mixing cells at an O.D. of 0.5 at 650 nm with different lectins at different concentrations. The extent of aggregation was determined by a semi-quantitative approach. […] Lectins that caused cellular-aggregation to give small flocs in a turbid suspension were given a score of “+”. […] Lectins that caused cellular aggregation to give easily visible aggregates in a clear solution were given a score of “+++”.

K. pneumoniae = test system: K. pneumoniae
Description: as §1, §2

S. plymuthica = test system: S. plymuthica
Description: as §1, §2

E. asburiae = test system: E. asburiae
Description: as §1, §2

Pseudomonas sp. 2881 = test system: Pseudomonas sp. 2881
Description: as §1, §2

S. paucimobilis = test system: S. paucimobilis
Description: as §1, §2

E. faecalis = test system: E. faecalis
Description: as §1, §2

S. haemolyticus = test system: S. haemolyticus
Description: as §1, §2

C. aquaticum = test system: C. aquaticum
Description: as §1, §2

E. coli S17-1 (K12) = test system: E. coli S17-1 (K12)
Description: as §1, §2

A. hydrophila = test system: A. hydrophila
Description: as §1, §2

Molecule	extent of aggregation (score) (C. freundii; lectin 1 × 10^−1 mg/mL)	extent of aggregation (score) (C. freundii; lectin 1 × 10^−2 mg/mL)	extent of aggregation (score) (C. freundii; lectin 1 × 10^−3 mg/mL)	extent of aggregation (score) (K. pneumoniae; lectin 1 × 10^−1 mg/mL)	extent of aggregation (score) (K. pneumoniae; lectin 1 × 10^−2 mg/mL)	extent of aggregation (score) (K. pneumoniae; lectin 1 × 10^−3 mg/mL)	extent of aggregation (score) (S. plymuthica; lectin 1 × 10^−1 mg/mL)	extent of aggregation (score) (S. plymuthica; lectin 1 × 10^−2 mg/mL)	extent of aggregation (score) (S. plymuthica; lectin 1 × 10^−3 mg/mL)	extent of aggregation (score) (E. asburiae; lectin 1 × 10^−1 mg/mL)	extent of aggregation (score) (E. asburiae; lectin 1 × 10^−2 mg/mL)	extent of aggregation (score) (E. asburiae; lectin 1 × 10^−3 mg/mL)	extent of aggregation (score) (Pseudomonas sp. 2881; lectin 1 × 10^−1 mg/mL)	extent of aggregation (score) (Pseudomonas sp. 2881; lectin 1 × 10^−2 mg/mL)	extent of aggregation (score) (Pseudomonas sp. 2881; lectin 1 × 10^−3 mg/mL)	extent of aggregation (score) (S. paucimobilis; lectin 1 × 10^−1 mg/mL)	extent of aggregation (score) (S. paucimobilis; lectin 1 × 10^−2 mg/mL)	extent of aggregation (score) (S. paucimobilis; lectin 1 × 10^−3 mg/mL)	extent of aggregation (score) (E. faecalis; lectin 1 × 10^−1 mg/mL)	extent of aggregation (score) (E. faecalis; lectin 1 × 10^−2 mg/mL)	other results
Concanavalin A	+++	+	+	+++	+	+	+	+	+	+	+	0	+++	++	++	+	++	0	0	+	extent of aggregation (score) (E. faecalis; lectin 1 × 10^−3 mg/mL): ++; extent of aggregation (score) (S. haemolyticus; lectin 1 × 10^−1 mg/mL): +++; extent of aggregation (score) (S. haemolyticus; lectin 1 × 10^−2 mg/mL): ++; extent of aggregation (score) (S. haemolyticus; lectin 1 × 10^−3 mg/mL): +; extent of aggregation (score) (C. aquaticum; lectin 1 × 10^−1 mg/mL): ++; extent of aggregation (score) (C. aquaticum; lectin 1 × 10^−2 mg/mL): ++; extent of aggregation (score) (C. aquaticum; lectin 1 × 10^−3 mg/mL): 0; extent of aggregation (score) (E. coli S17-1 (K12); lectin 1 × 10^−1 mg/mL): +++; extent of aggregation (score) (E. coli S17-1 (K12); lectin 1 × 10^−2 mg/mL): +++; extent of aggregation (score) (E. coli S17-1 (K12); lectin 1 × 10^−3 mg/mL): +; extent of aggregation (score) (A. hydrophila; lectin 1 × 10^−1 mg/mL): +++; extent of aggregation (score) (A. hydrophila; lectin 1 × 10^−2 mg/mL): ++; extent of aggregation (score) (A. hydrophila; lectin 1 × 10^−3 mg/mL): ++
B1	+++	+	+	++	+	+	+	+	+	0	0	0	+++	++	+	+	0	0	+	+	extent of aggregation (score) (E. faecalis; lectin 1 × 10^−3 mg/mL): ++; extent of aggregation (score) (S. haemolyticus; lectin 1 × 10^−1 mg/mL): +++; extent of aggregation (score) (S. haemolyticus; lectin 1 × 10^−2 mg/mL): +; extent of aggregation (score) (S. haemolyticus; lectin 1 × 10^−3 mg/mL): +; extent of aggregation (score) (C. aquaticum; lectin 1 × 10^−1 mg/mL): ++; extent of aggregation (score) (C. aquaticum; lectin 1 × 10^−2 mg/mL): +; extent of aggregation (score) (C. aquaticum; lectin 1 × 10^−3 mg/mL): 0; extent of aggregation (score) (E. coli S17-1 (K12); lectin 1 × 10^−1 mg/mL): +++; extent of aggregation (score) (E. coli S17-1 (K12); lectin 1 × 10^−2 mg/mL): ++; extent of aggregation (score) (E. coli S17-1 (K12); lectin 1 × 10^−3 mg/mL): +; extent of aggregation (score) (A. hydrophila; lectin 1 × 10^−1 mg/mL): +++; extent of aggregation (score) (A. hydrophila; lectin 1 × 10^−2 mg/mL): ++; extent of aggregation (score) (A. hydrophila; lectin 1 × 10^−3 mg/mL): ++
